Results taken from patent publication US7576082B2, “Oxindole derivatives” (Hoffman-La Roche Inc., priority 2005, dated 2009).
pIC50: −log10 of the molar value.

The compounds below were run against interaction between p53 and MDM2 proteins (Homo sapiens, UniProt Q00987) (assay: HTRF assay of inhibition of the interaction between p53 and MDM2 proteins (GST-MDM2 / biotinylated p53 peptide)). Conditions: recombinant GST-tagged MDM2, biotinylated p53 peptide, 37° C. for 1 h.
Type: binding
Method: […], the ability of the compounds to inhibit the interaction between p53 and MDM2 proteins was measured.
The ability of the compounds to inhibit the interaction between p53 and MDM2 proteins was measured by an HTRF (homogeneous time-resolved fluorescence) assay in which recombinant GST-tagged MDM2 binds to a peptide that resembles the MDM2-interacting region of p53 (Lane et al.). Binding of GST-MDM2 protein and p53-peptide (biotinylated on its N-terminal end) is registered by the FRET (fluorescence resonance energy transfer) between Europium (Eu)-labeled anti-GST antibody and streptavidin-conjugated Allophycocyanin (APC).
Test is performed in black flat-bottom 384-well plates (Costar) in a total volume of 40 uL containing: 90 nM biotinylate peptide, 160 ng/ml GST-MDM2, 20 nM streptavidin-APC (PerkinElmerWallac), 2 nM Eu-labeled anti-GST-antibody (PerkinElmerWallac), 0.2% bovine serum albumin (BSA), 1 mM dithiothreitol (DTT) and 20 mM Tris-borate saline (TBS) buffer as follows: Add 10 uL of GST-MDM2 (640 ng/ml working solution) in reaction buffer to each well. Add 10 uL diluted compounds (1:5 dilution in reaction buffer) to each well, mix by shaking. Add 20 uL biotinylated p53 peptide (180 nM working solution) in reaction buffer to each well and mix on shaker. Incubate at 37° C. for 1 h. Add 20 uL streptavidin-APC and Eu-anti-GST antibody mixture (6 nM Eu-anti-GST and 60 nM streptavidin-APC working solution) in TBS buffer with 0.2% BSA, shake at room temperature for 30 minutes and read using a TRF-capable plate reader at 665 and 615 nm (Victor 5, Perkin ElmerWallac). If not specified, the reagents were purchased from Sigma Chemical Co.

Chain of interaction between p53 and MDM2 proteins (Q00987 whole entry): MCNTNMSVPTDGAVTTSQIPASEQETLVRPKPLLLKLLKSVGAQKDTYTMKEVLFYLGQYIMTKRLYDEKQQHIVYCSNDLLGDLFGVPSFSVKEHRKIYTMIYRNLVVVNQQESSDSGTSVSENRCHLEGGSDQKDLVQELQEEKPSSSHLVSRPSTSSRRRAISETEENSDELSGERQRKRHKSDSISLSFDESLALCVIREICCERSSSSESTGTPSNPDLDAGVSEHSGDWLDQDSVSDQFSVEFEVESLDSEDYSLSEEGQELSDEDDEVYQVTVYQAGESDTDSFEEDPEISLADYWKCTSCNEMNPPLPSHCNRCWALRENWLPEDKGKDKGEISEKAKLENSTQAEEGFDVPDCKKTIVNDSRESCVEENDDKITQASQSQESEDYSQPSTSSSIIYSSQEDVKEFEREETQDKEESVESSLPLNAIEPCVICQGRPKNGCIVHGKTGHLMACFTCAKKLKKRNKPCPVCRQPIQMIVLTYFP

| pIC50 | Structure (SMILES) |
| --- | --- |
| 5.27 | O=C1Nc2cc(Cl)ccc2C1(Cc1ccccc1)C1CCCC1 (racemic) [Example 3C, rac-3-Benzyl-6-chloro-3-cyclopentyl-1,3-dihydro-indol-2-one] |
| 5.02 | COc1cccc(C2(Cc3ccccc3)C(=O)Nc3cc(Cl)ccc32)c1 (racemic) [Example 6C, rac-3-Benzyl-6-chloro-3-(3-methoxy-phenyl)-1,3-dihydro-indol-2-one] |
| 6.34 | COc1cccc(C2(Cc3cccc(Cl)c3)C(=O)Nc3cc(Cl)ccc32)c1 (racemic) [Example 9, rac-6-Chloro-3-(3-chloro-benzyl)-3-(3-methoxy-phenyl)-1,3-dihydro-indol-2-one] |
| 6.55 | COc1cccc([C@]2(Cc3cccc(Cl)c3)C(=O)Nc3cc(Cl)ccc32)c1 (single isomer, unassigned) [Example 13] |
